Experimental data published in patent publication US20260152533A1, “COMBINATION INHIBITORS FOR TREATING FIBROSIS” (Memorial Sloan-Kettering Cancer Center, priority 2021, published 2026).

Columns and labels:
Assay type in all cases: cell-based, mouse
NIH-3T3 cells [1] = test: Western blot of NIH-3T3 cells (collagen I, GCN2, ATF4, PC); settings: for rescue of TGFβ-induced collagen I depletion: metabolite, 48 hours
Source text: (§1) PSCs were isolated from C57BL/6 mice by differential centrifugation as previously described^49 and their mesenchymal origin was validated by analyzing the expression of various mesenchymal and epithelial markers. MFBs were isolated from FVB/N mice by differential centrifugation as previously described^50. DB7 mouse breast cancer cells were obtained from Alexander Borowsky (University of California Davis Comprehensive Cancer Center, Sacramento, CA, USA) through an MTA to Ohio State University (OSU). KPC (Kras^LSL-G12D; Trp53^LSL-R172H; Pdx1-Cre) mouse PDAC cells were a gift from Scott Lowe (Memorial Sloan Kettering Cancer Center. (MSKCC)). All cells were cultured at 37° C. in 5% carbon dioxide (CO2) and 20% oxygen (O2) and were maintained in Dulbecco's Modified Eagles medium (DMEM) (25 mM D-glucose, 2 mM L-glutamine) supplemented with 10% fetal bovine serum (FBS) (Gemini), 100 units/ml penicillin and 100 μg/ml streptomycin. Primary PSC and MFB cells were kept in culture for no more than ten passages. Experiments with iCAFs and myCAFs were performed as previously described^29. In brief, qPSCs were generated by culturing PSCs in a dome of GFR Matrigel (Corning) in DMEM; iCAFs were generated by culturing PSCs in a dome of GFR Matrigel in DMEM conditioned by KPC cells for 48 h; myCAFs were generated by monolayer culture of PSCs. Differentiation was validated by analyzing the expression of iCAF/myCAF markers^29. For experiments with different glutamine concentrations, cells were seeded in regular DMEM and the medium was changed 5-6 hours later or the following day to glucose and glutamine-free DMEM supplemented with 10% dialyzed FBS (Gemini) and 20 mM D-glucose, 2 mM L-glutamine (100%), 0.4 mM L-glutamine (20%) or 0.2 mM L-glutamine (10%). All media were prepared by the Media Preparation Facility at MSKCC. Cells were verified as mycoplasma-free by the MycoAlert Mycoplasma Detection Kit (Lonza).
Lysates were generated by incubating cells or ground tumors in RIPA buffer (Millipore); […] of cleared lysate were analyzed by SDS-polyacrylamide gel electrophoresis (SDS-PAGE) as previously described^11. […] The following secondary antibodies were used: anti-rabbit horseradish peroxidase (HRP) (1:5,000; GE, NA934V), anti-mouse HRP (1:5,000; GE, NA931). Quantification of band intensities of collagen I relative to […] or vinculin in tumor allograft experiments was performed with Image Lab software v6.0 (Bio-Rad).

NIH-3T3 cells [2] = test: Collagen abundance in ECM derived from confluent NIH-3T3 cells; settings: low glutamine and low glucose medium (FIGS. 12E and 12F)
Method: Culture plates were coated with 0.1% gelatin (Sigma) and treated with 1% glutaraldehyde (Sigma) and 1 M ethanolamine (Sigma). Confluent NIH-3T3 cells, MFBs or PSCs were grown for 6 days on coated plates in the presence of […] sodium ascorbate (Sigma) and treated as indicated, and the medium was replaced every other day. Plates were decellularized with 20 mM ammonium hydroxide/0.5% Triton-X 100 for 5 min on a rotating platform. Three times the volume of PBS was added, and ECM was equilibrated overnight at 4° C., followed by four additional PBS washes. For western blot, preheated sample buffer supplemented with 1 mM dithiothreitol (DTT) was added, ECM was scraped off and boiled, and proteins were separated by SDS-PAGE followed by immunoblotting. To measure collagen abundance, fibroblast-derived ECM was stained with the Picro Sirius Red Stain Kit (Abcam) according to the manufacturer's instructions. The stain was extracted with 0.1 M sodium hydroxide (NaOH) and optical density was measured at 550 nm using a microplate reader. Differences in cell number were controlled for by growing cells on separate plates under the same experimental conditions.

[3] = test system: pancreatic stellate cells (PSCs); test: Western blot of PSCs; settings: TGFβ-treated PSCs, low glutamine, MSO (FIGS. 9A-9B)
Source text: as §1, with “For experiments with different glutamine concentrations, cells were seeded in regular DMEM and the medium was changed 5-6 hours later or the following day to glucose and glutamine-free DMEM supplemented with 10% dialyzed FBS (Gemini) and 20 mM D-glucose, 2 mM L-glutamine (100%), 0.4 mM L-glutamine (20%) or 0.2 mM L-glutamine (10%). All media were prepared by the Media Preparation Facility at MSKCC. Cells were verified as mycoplasma-free by the MycoAlert Mycoplasma Detection Kit (Lonza).” left out
Lysates were generated by incubating cells or ground tumors in RIPA buffer (Millipore); […] of cleared lysate were analyzed by SDS-polyacrylamide gel electrophoresis (SDS-PAGE) as previously described^11. […] Quantification of band intensities of collagen I relative to […] or vinculin in tumor allograft experiments was performed with Image Lab software v6.0 (Bio-Rad).

NIH-3T3 cells [4] = test: Translation assay (OPP), NIH-3T3 cells; settings: cells expressing human PC cDNA, 10% Gln, TGFβ, MSO 48 hours (FIG. 3K)
Method: Cells were treated as indicated and incubated with 20 μM O-propargyl-puromycin (OPP, Thermo Scientific) for the last 1 hour of the experiment. Cells were harvested by trypsinization and fixed with methanol at −20° C., followed by permeabilization with 0.5% Triton X-100 in phosphate-buffered saline (PBS).

NIH-3T3 cells [5] = test: tRNA charging assay, NIH-3T3 cells; settings: 10% Gln, TGFβ 2 ng/mL, dm-αKG 5 mM with or without MSO 2 mM, 48 hours (FIG. 2A)
Method: Charging status of the indicated tRNA isodecoders was measured as previously described^20. In brief, Trizol-chloroform extracts were precipitated with 2.7× volumes of cold ethanol in the presence of 30 μg GlycoBlue (ThermoFisher) overnight. Samples were resuspended in 0.3 M acetate buffer (pH 4.5) with 10 mM ethylenediamine tetraacetic acid (EDTA) and precipitated overnight. Samples were resuspended in 10 mM acetate buffer with 1 mM EDTA. 2 μg of each RNA sample was treated with 10 mM of either sodium periodate (Sigma) (‘oxidized sample’) or sodium chloride (‘non-oxidized sample’) and incubated for 20 minutes at room temperature in the dark. Reactions were quenched with glucose for 15 minutes. Yeast Phe-tRNA (Sigma) was spiked into each sample, followed by ethanol precipitation. Samples were resuspended in 50 mM Tris buffer (pH 9) and incubated for 50 minutes at 37° C., quenched with acetate buffer and precipitated. […] Reverse transcription was performed with SuperScript IV reverse transcriptase (Thermo Scientific) according to the manufacturer's instructions, with a primer complementary to the DNA adaptor. cDNA samples were subjected to qPCR with tRNA isodecoder-specific primer pairs listed in Supplementary Table 1. Ct values obtained with primers specific for yeast Phe-tRNA were subtracted from Ct values obtained with isodecoder-specific primers. The charged fraction was calculated based on the relative difference between the delta-Ct value of a non-oxidized (representing total) and oxidized (representing charged) sample for each primer pair.

NIH-3T3 cells [6] = test: Growth experiments, NIH-3T3 cells; settings: 10% Gln, TGFβ, 0.2, 1 or 5 mM metabolite, 3 days
Source text: NIH-3T3 cells were obtained from ATCC (CRL-1658); 293 T cells were obtained from ATCC (CRL-3216). PSCs were isolated from C57BL/6 mice by differential centrifugation as previously described^49 and their mesenchymal origin was validated by analyzing the expression of various mesenchymal and epithelial markers. MFBs were isolated from FVB/N mice by differential centrifugation as previously described^50. DB7 mouse breast cancer cells were obtained from Alexander Borowsky (University of California Davis Comprehensive Cancer Center, Sacramento, CA, USA) through an MTA to Ohio State University (OSU). KPC (Kras^LSL-G12D; Trp53^LSL-R172H; Pdx1-Cre) mouse PDAC cells were a gift from Scott Lowe (Memorial Sloan Kettering Cancer Center. (MSKCC)). All cells were cultured at 37° C. in 5% carbon dioxide (CO2) and 20% oxygen (O2) and were maintained in Dulbecco's Modified Eagles medium (DMEM) (25 mM D-glucose, 2 mM L-glutamine) supplemented with 10% fetal bovine serum (FBS) (Gemini), 100 units/ml penicillin and 100 μg/ml streptomycin. Primary PSC and MFB cells were kept in culture for no more than ten passages. Experiments with iCAFs and myCAFs were performed as previously described^29. In brief, qPSCs were generated by culturing PSCs in a dome of GFR Matrigel (Corning) in DMEM; iCAFs were generated by culturing PSCs in a dome of GFR Matrigel in DMEM conditioned by KPC cells for 48 h; myCAFs were generated by monolayer culture of PSCs. Differentiation was validated by analyzing the expression of iCAF/myCAF markers^29. For experiments with different glutamine concentrations, cells were seeded in regular DMEM and the medium was changed 5-6 hours later or the following day to glucose and glutamine-free DMEM supplemented with 10% dialyzed FBS (Gemini) and 20 mM D-glucose, 2 mM L-glutamine (100%), 0.4 mM L-glutamine (20%) or 0.2 mM L-glutamine (10%). All media were prepared by the Media Preparation Facility at MSKCC. Cells were verified as mycoplasma-free by the MycoAlert Mycoplasma Detection Kit (Lonza).
A total of 0.2×10^5 cells/well were plated in 24-well culture plates and media was changed and treatments started 5-6 hours later. Cell numbers at the start of treatment (day 0 “d 0”) and 1, 2 and 3 days later were counted using the Multisizer 4e (Beckman) and normalized to the cell number at d 0. In co-culture assays, a fraction of the cell population was analyzed by flow cytometry for GFP expression, and the rest counted with the Multisizer 4e. The number of KPC-GFP cells was determined by multiplying the fraction of GFP+ cells with the total number of cells.

[7] = concentrations relevant in vivo (10 mM lactate, 0.1 mM pyruvate), low glutamine and low glucose (FIG. 6E)

## CC(O)C(=O)[O-].[Na+] (stereo not drawn) [lactate, sodium lactate]
NIH-3T3 cells [1]; Ctrl or PC sgRNA cells, low glutamine and low glucose (FIG. 6H)
  ability of extracellular lactate to rescue collagen I: PC-dependent
NIH-3T3 cells [1]; [7]
  collagen 1 levels: increased
NIH-3T3 cells [1]; low glutamine (10%) and low glucose (1 mM), 48 hours (FIG. 6E)
  collagen 1 levels: increased
NIH-3T3 cells [2]
  collagen levels in the ECM produced by confluent fibroblasts: increased

## CS(=N)(=O)CC[C@H](N)C(=O)O (stereo partly drawn) [MSO, methionine sulfoximine]
[3]
  restoration of collagen levels by dm-Glu and dm-αKG: prevented
NIH-3T3 cells [4]
  increase of protein translation by PC overexpression: blocked
NIH-3T3 cells [5]
  charging of glutamine-tRNA: blocked
NIH-3T3 cells [1]; PC-deleted cells, 10% Gln, dm-αKG plus MSO, 48 hours (FIG. 4I)
  restoration of collagen I levels by dm-αKG: unable to restore
NIH-3T3 cells [1]; TGFβ-treated NIH-3T3 cells, low glutamine, MSO (FIGS. 2C-2E)
  restoration of collagen levels by dm-Glu and dm-αKG: prevented
NIH-3T3 cells [1]; low Gln (10%), no TGFβ, MSO 48 hours (FIG. 2J)
  collagen I synthesis: unable to maintain

## CC(=O)C(=O)[O-].[Na+] [Pyruvate, sodium pyruvate]
NIH-3T3 cells [1]; [7]
  collagen 1 levels: only lactate supplementation increased
NIH-3T3 cells [1]; low glutamine and low glucose (FIG. 6E)
  potency to increase collagen 1 levels, relative: more potent than lactate

## COC(=O)[C@@H]1CCCN1 [m-Pro, L-proline-methylester, reference compound]
NIH-3T3 cells [1]; 10% Gln
  rescue of TGFβ-induced collagen I depletion: not
NIH-3T3 cells [6]
  rescue of TGFβ-induced growth defect: not

## NC(=O)C[C@H](N)C(=O)O [Asparagine, asparagine]
NIH-3T3 cells [1]; 10% Gln
  rescue of TGFβ-induced collagen I depletion: did not rescue
NIH-3T3 cells [6]
  rescue of TGFβ-induced growth defect: did not rescue

## O=C(O)[C@@H]1CCCN1 [proline]
NIH-3T3 cells [1]; 10% Gln
  rescue of TGFβ-induced collagen I depletion: did not rescue
NIH-3T3 cells [6]
  rescue of TGFβ-induced growth defect: did not rescue
